Columns and labels:
[1] = test system: OPG production in MG-63 cells, ATCC CRL 1427; experiment: Screening for control of the production of OPG in MG-63 cells; format: cell-based, human; settings: saccharide solutions Nos. 1 to 7, 2-day culture
[2] = test system: OPG production in FHs 74 Int cells, ATCC CCL 241; experiment: Production of OPG in FHs 74 Int cell culture supernatant, Western Blotting; format: cell-based, human; settings: 2-day culture with saccharide (1 mg/ml; α,α-trehalose 1, 0.2, 0.04 mg/ml), control without saccharide = 100
Experimental: FHs 74 Int cells, ATCC CCL 241, were inoculated to 96-well plates, with D-MEM medium prepared by adding fetal calf serum, commercialized by GIBCO Bethesda Research Laboratories, Bethesda, Md., USA, to the serum-free culture medium shown in Table 1 below to give a final concentration of 10% (v/v), a final cell density of 1.2×10^4 cells/well, and a final volume of 200 μl; and incubated at 37° C. for 48 hours in a 5% CO2 (V/V) incubator. After completion of the culture, the resultant cells were washed thrice (200 μl×3) with the serum-free D-MEM medium in Table 1. […] Two hundred microliters of each of the saccharide solutions of Nos.1 to 7 were placed in each well of the 96-well plates with the cells, and the cells were incubated at 37 C for two days in a 5% CO2 (v/v) incubator. The culture supernatant in each well was sampled and assayed for the production level of OPG by the Western Blotting method as indicated below using a recombinant human OPG commercialized by R & D Systems Inc., MN, USA. In parallel, a cell culture system with no saccharide, as a control group, was provided and cultured, and the supernatant of the cell culture was sampled on day 2 after the initiation of the cell culture and assayed for the production level of OPG similarly as in the test group.
Fifteen microliters of any of the cell culture supernatants of the test solutions and the control solution, and five microliters of dithiothreitol (DTT) solution for cell treatment were mixed and heated at 99° C. for five minutes. Each of the resulting solutions with heat treatment was developed on SDS-polyacrylamide gel electrophoresis (SDS-PAGE) using multi-gel 4/20 commercialized by Daiichi Pure Chemicals Co., Ltd., Tokyo, Japan; and the gels were transferred to PVDF membranes commercialized by Nihon Millipore Corporation, Tokyo, Japan. The resulting PVDF membranes were blocked with a solution of “BLOCK ACE™”, commercialized by Dainippon Pharmaceutical Co., Ltd., Tokyo, Japan, and contacted with an anti-human OPG antibody as a primary antibody, commercialized by R & D Systems, MN, USA, and an HRP anti-goat IgG antibody, as a secondary antibody, commercialized by Sigma Chemical Co., MO, USA; followed by detecting proteins reacted with these antibodies in accordance with the method described in Experimental Medicine, special edition, titled Handbook for novel recombinant technology, pp. 222-226 (1999). The coloration was effected by using ECL reagent, commercialized by Amersham Pharmacia Biotechnology, IL, USA; exposing “[sequence] ECL™”; and measuring the expression intensity by using “IMAGE MASTER™”, commercialized by Amersham Biosciences, Tokyo, Japan.

ddy mice = settings: 15 g/kg body weight, by syringe or intubationally with stomach sonde, observed seven days
Experimental: Either of the sterilized saccharide solutions was administered with a syringe or intubationally administered with a stomach sonde to five groups of ddy mice, having 20 to 25 g body weight, consisting of five heads in each group. The mice were observed their conditions for seven days.

OPG = experiment: Administration test in healthy volunteers, blood OPG by ELISA; format: in vivo, human; settings: for production level of OPG in blood: 100 ml of 10% (w/v) solution orally after fasting, blood at six hours, ELISA
Experimental: Eighteen healthy volunteers, aged 35 to 50-years-old, were divided into three groups A, B, and C, consisting of three males and three females in each group. […] As a control solution, 1,000 ml of deionized water were sterilized with a membrane filter. These test and control solutions were stored at about 10° C. in a refrigerator until initiating the test. The volunteers in the groups A to C were allowed to fast, except for water, from 10 p.m. at night just before initiating the test, and 100 ml aliquots of the test solution 1, the test solution 2, and the control solution were administered to the groups A, B, and C, respectively, at 6 a.m. on the next day. Thereafter, all the volunteers were allowed to stay indoors calmly and sampled their blood at six hours after the administrations. The sampled bloods were centrifuged at […] for 10 min and quantified for OPG with “RS000805”, a product code number for ELISA system for assaying OPG commercialized by Funakoshi Co., Ltd., Tokyo. Japan.

In the case of `OC[C@H]1O[C@H](O[C@H]2[C@H](O)[C@@H](O)C(O)O[C@@H]2CO)[C@H](O)[C@@H](O)[C@@H]1O` (mixture of isomers) [maltose], the “production of OPG compared with a control culture system free of saccharide” value [1] is reported as “remarkably inhibited the production of OPG” and the “expression intensity of OPG versus control cell culture system” value [2] is reported as “lower than that for the control cell culture system”.
In the case of `OC[C@H]1O[C@H](O[C@H]2O[C@H](CO)[C@@H](O)[C@H](O)[C@H]2O)[C@H](O)[C@@H](O)[C@@H]1O` [α,α-trehalose], the mortality (ddy mice) is reported as “no mouse died”, the “production of OPG compared with a control culture system free of saccharide” value [1] is reported as “distinctly enhanced the production of OPG” and the “expression intensity of OPG versus control cell culture system” value [2] is reported as “higher than that for the control cell culture system”. The “complaints of abnormality after administration” value (OPG; healthy volunteers, 100 ml of 10% (w/v) solution orally) was “no volunteer” and the “production level of OPG in blood” value (OPG; healthy volunteers) was “significantly higher than those with the test solution 2 and the control solution”.
`OC[C@H]1O[C@@](CO)(O[C@H]2O[C@H](CO)[C@@H](O)[C@H](O)[C@H]2O)[C@@H](O)[C@@H]1O` [sucrose] was tested, and the mortality (ddy mice) was “no mouse died”, the “production of OPG compared with a control culture system free of saccharide” value [1] was “remarkably inhibited the production of OPG” and the “expression intensity of OPG versus control cell culture system” value [2] was “lower than that for the control cell culture system”.
`O=C[C@H](O)[C@@H](O)[C@H](O)[C@H](O)CO` [D-glucose] was tested, and the mortality (ddy mice) was “no mouse died”, the “production of OPG compared with a control culture system free of saccharide” value [1] was “remarkably inhibited the production of OPG” and the “expression intensity of OPG versus control cell culture system” value [2] was “lower than that for the control cell culture system”. For the same compound, the “production level of OPG in blood” value (OPG; healthy volunteers) was “significantly lower production level of OPG than that of the group C with the control solution” and the “complaints of abnormality after administration” value (OPG; human, in vivo, po) was “no volunteer”.

Reference: patent US20050054585A1, “Agent controlling the production of osteoclast formation regulator and method of screening substance capable of controlling the production of osteoclast formation regulator” (priority 2001, published 2005)
